Here are results for two compounds from patent US10745731B2, “Recombinant production method” (Hoffmann-La Roche Inc., priority 2015, dated 2020).

The subject of series [1] is HEK293F cells. Nature of the series: Transient gene expression in HEK293F cells: cell specific productivity of the expressed antibody. Type of series: cell-based, human. The conditions noted are these: for cell specific productivity with BAY11-7082 addition compared to the single treatment: 15 μM BAY11-7082 added 24 h after transfection; for specific productivity after 96 hours: none 2.01; for Mean cell specific productivity: untreated 1.71. Here is the method:
HEK293F cells were cultivated in F17 medium (Life Technologies) in shaker flasks at 36.5° C., 7.0% CO2 and 80% humidity in a shaker incubator (Kuhner, Mytron). Cells were split every three to four days and were cultivated no longer than five weeks. To avoid overgrowth and to keep them in the exponential phase of growth, viable cell densities (VCD) never exceeded 60*10^5 cells/mL.
(§1) Transient gene expression is a 5-7 days lasting procedure. The standard operating procedure of this expression system is applicable to shaker flasks with various volumes of cell culture ranging from 80 mL to 2 L. First, half of the cell culture volume is seeded at a viable cell density (VCD) of 8*10^5 cells/mL. After two days of cultivation, cells are split to a VCD of about 12*10^5 cells/mL. On the next day, cells are transfected with a polyethylene imine (PEI)-based transfection reagent at a VCD between 20*10^5 cells/mL and 25*10^5 cells/mL. 3 hours after transfection, the production enhancer (if any) is added. 24 h after transfection, a feeding solution and a glucose bolus is supplemented to avoid the limitation of nutrients. Depending on cell viability, which should not decrease below 50%, the supernatant is harvested five to seven days post transfection and subjected to antibody purification.
(§2) To compare transient gene expression rates always the same plasmids encoding for one distinct antibody were co-transfected.
(§3) To co-transfect two plasmids equimolarily, the ratio of the base pair number of one plasmid to the total base pair number was calculated and multiplied with the total amount of DNA (0.5 mg/L). Plasmid one has a size of 10530 bp and plasmid two has a size of 7184 bp and were solved in water to a final concentration of 1 mg/mL. For transfection of one liter cell culture, 297 μL of plasmid one and 203 μl of plasmid two were dissolved in 40 mL phosphate buffered saline (PBS) at room temperature. 1.25 mL JetPEI® solution was added and the solution was mixed well. After incubation for 10-15 min., the mixture was added to the cells. The cells were transfected in a batch containing the whole cell culture necessary for every experiment to avoid variance arising from different transfection efficiencies.
(§4) 80 mL of the transfected cell culture batch was added to a 125 ml shaker flask. For every experiment, two or three 125 mL shaker flasks were used as biological replicates and treated the same way. Three hours after transfection, cells were split into 125 mL shaker flasks and the cellular treatments with small molecules or ligands were started. Basal protein expression was determined by untreated control samples. To compare samples with the standard operating procedure, cells were also treated with VPA to a final concentration of 4 mM or 3 mM. VPA and its analogues were dissolved in double distilled water. […] Tumor necrosis factor (TNF) alpha was reconstituted with PBS supplemented with 0.1% BSA. Flagellin was dissolved in sterile double distilled water. The applied molecules were not added to the cultivation directly, but diluted in 16 mL medium pre-warmed to 36.5° C. and added to the cultivation thereafter.
(§5) 24 h after transfection a feeding solution at 36.5° C. and 3 mg/mL glucose were added to the cultivation.
(§6) To determine cell viability and viable cell density (VCD) 1 mL cultivation medium (cell suspension) was transferred into a Cedex low fouling sample cup. The cup was placed into a Vicell instrument (Beckman Coulter). The instrument mixes cells with trypan blue to stain dead cells. After analysis of 50 images VCD was calculated and viability was determined by calculation of the percentage of viable cell number in relation to the total cell number.
Total concentration of the transiently expressed antibody was determined by a turbidimetric test. One mL cell suspension was transferred into an Eppendorf cup and centrifuged for 10 min. at 10,000 rpm (9,300 g).

In series [2] the test system is HEK293F cells. Nature of the series: Transient gene expression in HEK293F cells: IgG concentration / titer (turbidimetric test). Type of series: cell-based, human. The conditions noted are these: none=100; for relative IgG concentration: N=3; for relative titer: N=2. Here is the method: as §1, §2, §3, §4, §5
Total concentration of the transiently expressed antibody was determined by a turbidimetric test. One mL cell suspension was transferred into an Eppendorf cup and centrifuged for 10 min. at 10,000 rpm (9,300 g). The supernatant was transferred into a new cup and subjected to Cobas Integra 400 plus (Roche) analysis. With comparison to internal standard the absolute concentration was calculated.

For series [3], the system named is HDAC. The settings on record: description from the literature; cited from earlier work.
In series [4] the test system is HDAC. Nature of the series: in situ HDAC activity fluorimetric assay in HEK293F cells. The settings on record: for HDACi: N=3, FIG. 3A; for HDAC inhibition: yes/no, summary table. Type of series: cell-based, human. On the procedure:
HDAC activity was determined by the in situ HDAC activity fluorimetric assay kit (Biovision) according to the manufacturer's instructions. HEK293F cells were suspended in F17 medium (Life Technologies) to a cell density of 5*10^5 cells/mL. One hundred micro liter culture was pipetted per well into a black ELISA plate. The plate was centrifuged at 1000 g for 5 min. The supernatant was discarded and the cells were resuspended in a reaction mix containing F17 medium, 1% HDAC substrate and the molecule tested towards HDAC inhibitory activity. 10 μM Trichostatin A was used as a positive control and the basal HDAC activity was determined by re-suspending the cells in F17 medium with 1% HDAC substrate. Furthermore, cells were resuspended in F17 medium without HDAC substrate as a background control. The HDAC activity assay was performed in triplicates for every sample as well as every control. The 96-well plate was incubated at 36.5° C., 80% humidity and 7% CO2 for one hour. During this time, the active HDACs deacetylate the HDAC substrate what releases the quenched fluorescent signal of the substrate. After incubation the fluorescent signal was analyzed by the infinite fluorescence plate reader (TECAN). The fluorescence signal of the samples and controls was normalized by subtracting the fluorescence signal of the background control. It is assumed that the fluorescent signal arising from deacetylation of the substrate directly correlates with HDAC activity.

Series [5] concerns HEK293F cells. Type of series: cell-based. On the procedure: as §6

Read-outs that look alike come from different tables or passages of the source.

`CC/C=C(\C)C(=O)O` [2M2P, trans-2-methyl 2-pentenoic acid]: the “cell specific productivity with BAY11-7082 addition compared to the single treatment” value in series [1] is “No reduction”. In addition, the “protein expression yields compared to the negative control” value in series [1] (3 mM, in words) was “clearly increased”. Besides, in series [1] (3 mM, single treatment, N=3), the “specific productivity after 96 hours” value is 2.40 pg/cell/day. Further, the activity at 3000 µM in series [1] (Homo sapiens, HEK293F, 3 mM, 2M2P/Quisinostat combination study, none=100, N=3, read-out: relative cell specific productivity) was determined as 169%; in series [1] (Homo sapiens, HEK293F, 3 mM, VPA/2M2P combination study, none=100, N=3, read-out: relative cell specific productivity), 169%; in series [1] (Homo sapiens, HEK293F, 3 mM, none=100, N=3, FIG. 6A, read-out: relative cell specific productivity) it was 131%; in series [1] (Homo sapiens, HEK293F, 3 mM, none=100, N=3, FIG. 9A, read-out: relative cell specific productivity) it was 131%; in series [1] (Homo sapiens, HEK293F, 3 mM, single treatment, none=100, N=3, read-out: relative cell specific productivity) it was 144%; in series [1] (Homo sapiens, HEK293F, 3 mM, transfected control=100, N=3, FIG. 3B, read-out: relative cell specific productivity) it was 191%. For the same compound, the activity at 3000 µM in series [1] (Homo sapiens, HEK293F, employed concentration 3 mM, none=100, N=2, FIG. 4, read-out: relative cell specific productivity) amounted to 196%. In addition, the activity at 2000 µM in series [1] (Homo sapiens, HEK293F, employed concentration 2 mM, none=100, N=2, FIG. 4, read-out: relative cell specific productivity) was 123%. In addition, the “Mean cell specific productivity” value in series [1] (conc. 3 mM) is reported as 5.4 (3 mM) pg/cell/24 h. Further, the “relative IgG concentration” value is given as 146% in series [2] (3 mM, 2M2P/Quisinostat combination study); 146% in series [2] (3 mM, VPA/2M2P combination study); 128% in series [2] (3 mM, FIG. 6B); 128% in series [2] (3 mM, FIG. 9B). In addition, the relative titer in series [2] (2M2P concentration 3 mM) was determined as 165%; in series [2] (2M2P concentration 6 mM), 257%; in series [2] (2M2P concentration 7 mM), 258%; in series [2] (2M2P concentration 8 mM) it was 172%; in series [2] (2M2P concentration 9 mM), 120%; in series [2] (2M2P concentration 10 mM), 42%. Besides, in series [2] (2M2P concentration 11 mM), the relative titer is listed as 0%. For the same compound, the HDAC inhibitory activity entry in series [3] was “very weak to no HDAC inhibitory activity”. In series [4] (3 mM), this compound came in with an HDACi of 9.4%. Further, the HDAC inhibition result in series [4] is recorded as “no”. The “toxicity (remark in titer cell)” value in series [5] (human, 11 mM) was “toxic”.

With `Cl.Cn1cc(CNCC2CCN(c3ncc(C(=O)NO)cn3)CC2)c2ccccc21` [Quisinostat], the “specific productivity after 96 hours” value in series [1] (300 nM, single treatment, N=3) amounted to 3.89 pg/cell/day. Moreover, in series [1], the “cell specific productivity with BAY11-7082 addition compared to the single treatment” value was “significantly reduced”. In addition, the activity at 0.3 µM in series [1] (Homo sapiens, HEK293F, 300 nM, 2M2P/Quisinostat combination study, none=100, N=3, read-out: relative cell specific productivity) is 258%; in series [1] (Homo sapiens, HEK293F, 300 nM, VPA/Quisinostat combination study, none=100, N=3, read-out: relative cell specific productivity), 258%; in series [1] (Homo sapiens, HEK293F, 300 nM, single treatment, none=100, N=3, read-out: relative cell specific productivity) it was 218%; in series [1] (Homo sapiens, HEK293F, 300 nM, transfected control=100, N=3, FIG. 3B, read-out: relative cell specific productivity), 339%; in series [1] (Homo sapiens, HEK293F, employed concentration 300 nM, none=100, N=2, FIG. 2B, read-out: relative cell specific productivity) it was 279%. The “Mean cell specific productivity” value in series [1] (conc. 300 mM (so in the source)) is 1.71 (300 mM) pg/cell/24 h. For the same compound, in series [1] (summary table, in words), the “Effect on titer/SPR” value is “strong”. For the same compound, the “relative IgG concentration” value in series [2] (300 nM, 2M2P/Quisinostat combination study) came to 169%; in series [2] (300 nM, VPA/Quisinostat combination study), 169%. Further, in series [3], the “HDAC class / isoform selectivity” value was “very potent broad spectrum HDAC inhibitor with highest potency towards HDAC 1, 2, 4, and 11”. In series [4] (300 nM), this compound displayed an HDACi of 69%. Also, the HDAC inhibition result in series [4] is “yes”. In addition, the “growth inhibition and cell death” value in series [5] (in contrast to other HDACi tested) is “induce growth inhibition and cell death”.
